Reference: a melting point compilation (Tetko et al.; mined from patent text by program, amines drawn as free bases though some values may be those of a salt)

Compound | melting point [°C]
CC(=O)Oc1ccc(-c2ccc(F)cc2)cc1C(=O)O | 134 to 137
CC(C)(CO)NC(=O)Cc1ccc2c(c1)C(=O)c1sccc1CO2 | 162 to 163
CC(C)(C)[S@](=O)N1CCC[C@@H]1c1ccc(Cl)cc1 | 80
CCCCC(Cn1cncn1)(C(=O)O)c1ccc(Cl)cc1 (stereo not drawn) | 169 to 171
COc1ccc(C(O)(CN)Cc2ccccc2N)cc1OC (stereo not drawn) | 131 to 133
O=C1C(=O)N(c2ccc(Cl)c(Cl)c2)C(=O)N1c1cccc(C(F)(F)F)c1 | 116
Nc1ccc2c(c1)COC2=O | 177 to 189
O=C1N(Cc2ccc(C(F)(F)F)o2)c2c(C(F)(F)F)cccc2C12COc1cc3c(cc12)OCO3 (stereo not drawn) | 95 to 98
Cc1ccc(NC(=O)Nc2ccc(N(CCCl)CCCl)cc2)cc1Nc1c2cccc(C)c2nc2c(C(=O)NCCN(C)C)cccc12 | 286 to 289
OC(=S)c1ccccc1-c1ccccc1 | 178 to 180
Cc1nc(CO)c(CO)[nH]1 | 182
N#Cc1cnc2cc(-c3csc(CN4CCOCC4)c3)ccc2c1Nc1ccc(Oc2ccccc2)cc1 | 221 to 223
CC(=O)Nc1nc2c(Oc3cc(-c4ccc(C(F)(F)F)cc4O)ncn3)cccc2s1 | 302 to 304
CC(=O)NCC1CC(c2ccc(-n3ccc(C#N)c3)c(F)c2)=NO1 (single isomer, unassigned; (-)) | 159 to 161
CCNc1ccc(C(N)=O)cc1[N+](=O)[O-] | 226
CCCc1c(OCCCOc2cccc3c2CCCC3)ccc2c1OC(CCC(=O)O)(CCC(=O)OCC)CC2=O (stereo not drawn) | 83.5 to 84.5
CC(=O)Oc1ccc(Cc2ccc(C(=O)O)nc2)cc1 | 116 to 119
O=C1N(Cc2ccccn2)c2cccc(Br)c2C1(O)c1cc2c(cc1O)OCC2 (stereo not drawn) | > 225
COc1ccc(-c2cnc3c(n2)c(C#N)cn3S(=O)(=O)c2ccc(C)cc2)cc1OC | 233 to 234

Compound | melting point [°C]
O=C1CN2Cc3c(ccc(OCC(=O)N(CCO)C4CCCCC4)c3Cl)N=C2N1 | 237 to 239
COc1ccc(-c2ccc3c(c2)c(C)c(-c2ccccc2)n3Cc2ccccc2)cc1 | 117 to 122
CCOC(=O)c1cn(Cc2ccc(Oc3ccccc3)cc2)nc1OCc1ccc(OCc2nc(-c3ccco3)oc2C)c(OC)c1 | 98 to 99
COc1cccc(OC)c1C=CC(=O)C=Cc1c(OC)cccc1OC | 152 to 154
CCC(CC)Nc1c([N+](=O)[O-])cc(C)c(N)c1[N+](=O)[O-] | 157 to 160
CCOC(=O)CCC1OC(=O)C(O)=C1c1ccccc1 (stereo not drawn) | 114 to 116
CCN(CC)CC(O)CONC(=O)NC(C)(C)C (stereo not drawn) | 58 to 61
COc1cccc2c1C(=O)C(c1c(Cl)cccc1Cl)C2=O (stereo not drawn) | 163 to 165
O=C1N(Cc2ccc(OC(F)(F)F)cc2)c2ccccc2C12COc1cc3c(cc12)OCO3 (stereo not drawn) | 99 to 101
N#CC(=Cc1cc(F)ccc1[N+](=O)[O-])C(N)=O | 162 to 166
CC1(C(=O)c2c[nH]c3ncc(-c4ccc(N5CCNCC5)cc4)nc23)CCCCC1 | 214 to 216
O=C(CNc1c(C(=O)O)[nH]c2cc(Cl)cc(Cl)c12)c1ccc(F)cc1 | 259 to 261
CON=C(Cl)c1ccccc1OCc1ccc(Cl)cc1Cl | 91 to 92
O=C1OCCN1c1ccc(NCCO)c([N+](=O)[O-])c1 | 184
COc1ccc(SC2=C(C(=O)O)CCC2=CCCc2ccccc2)cc1OC | 146 to 148
CCCCC(Sc1cc(C(C)(C)C)c(O)c(C(C)(C)C)c1)C(=O)O (stereo not drawn) | 140 to 142
CC(C)(C)OC(=O)n1cnc2c(I)cc(F)cc21 | 73 to 74
C#Cc1ccc(N(c2ccc(C#C)cc2)c2ccc(C#C)cc2)cc1 | 115
COc1ccccc1NC(=O)Nc1ccc(N2CCN(C(=O)Nc3ccc(OCCO)cc3Cl)CC2)cc1 | 134 to 136
